How the values were obtained:
[1] = system: MDA-MB-231 breast tumor xenografts; test: Survival signals in MDA-MB-231 breast tumor xenografts after Abraxane (Western blotting, immunohistochemistry); assay type: in vivo, mice
Method: […] Tumor lysates were analyzed for VEGF expression and pro-survival signals (p42 & p44 kinase, p-NF-κB p50, p-Akt, bcl-2) using Western blotting. Expression of bcl-2 was further analyzed by immunohistochemistry.

[2] = system: imatinib-resistant gastrointestinal stromal tumor; conditions: addition of perifosine to imatinib, patients; cited from earlier work
[3] = system: second or third-line metastatic colon cancer; conditions: perifosine in combination with capecitabine, patients with advanced; cited from earlier work
[4] = system: metastatic or advanced renal cell carcinoma; conditions: progressing after prior therapy with a VEGF receptor inhibitor; cited from earlier work

| Structure (SMILES) | bcl-2 expression in tumors ([1]; surviving MDA-MB-231 tumors, SCID mice, Abraxane 10 to 30 mg/kg IV qdx5, Western blotting and immunohistochemistry) | inflammatory cytokines in tumors ([1]; tumors extracted immediately after therapy, Western blotting and immunohistochemistry) | activity in imatinib-refractory gastrointestinal stromal tumor [2] | median time to progression over capecitabine alone [3] | clinical outcome in renal cell carcinoma [4] |
| --- | --- | --- | --- | --- | --- |
| CC(=O)O[C@H]1C(=O)[C@@]2(C)[C@H]([C@H](OC(=O)c3ccccc3)[C@]3(O)C[C@H](OC(=O)[C@H](O)[C@@H](NC(=O)c4ccccc4)c4ccccc4)C(C)=C1C3(C)C)[C@]1(OC(C)=O)CO[C@@H]1C[C@@H]2O [paclitaxel] | Significant increases | Significant increases | – | – | – |
| CCCCCCCCCCCCCCCCCCOP(=O)([O-])OC1CC[N+](C)(C)CC1 [perifosine] | – | – | minimal activity | more than doubled | clinical benefits |

— patent US20120128732A1, “COMBINATIONS AND MODES OF ADMINISTRATION OF THERAPEUTIC AGENTS AND COMBINATION THERAPY” (priority 2008, published 2012)
